Tests used:
Staphylococcus aureus [1] = assay: Induction of sensitization to immune clearance towards Staphylococcus aureus Newman infected in human whole blood assessed as bacterial killing by measuring bacterial survival after 6 hrs by serial dilution method relative to control; format: functional
Staphylococcus aureus [2] = assay: Growth inhibition of Staphylococcus aureus Newman at 0.2 mM incubated overnight measured at 30 mins interval; format: organism-based; details: 0.5 h, 200 µM
Staphylococcus aureus [3] = assay: Growth inhibition of vancomycin-intermediate Staphylococcus aureus Mu50 at 0.2 mM incubated overnight measured at 30 mins interval; format: organism-based; details: 0.5 h, 200 µM

## CN(C/C=C/C=C/c1ccc(C(F)(F)F)cc1)Cc1ccc2c(c1)OCCO2.Cl
Staphylococcus aureus [1]
  Survival: <0.5%
Staphylococcus aureus [2]
  growth inhibition (GI): Non-Toxic
Staphylococcus aureus [3]
  growth inhibition (GI): Non-Toxic
